{"source": "paper PMC4585259", "about": "(Frontiers in Pharmacology, 2015)", "target": "T1, rNav1.2 sodium channels (Rattus norvegicus, UniProt P04775)", "T1 construct": "host or cells: HEK-293", "T1 sequence (P04775 whole entry)": "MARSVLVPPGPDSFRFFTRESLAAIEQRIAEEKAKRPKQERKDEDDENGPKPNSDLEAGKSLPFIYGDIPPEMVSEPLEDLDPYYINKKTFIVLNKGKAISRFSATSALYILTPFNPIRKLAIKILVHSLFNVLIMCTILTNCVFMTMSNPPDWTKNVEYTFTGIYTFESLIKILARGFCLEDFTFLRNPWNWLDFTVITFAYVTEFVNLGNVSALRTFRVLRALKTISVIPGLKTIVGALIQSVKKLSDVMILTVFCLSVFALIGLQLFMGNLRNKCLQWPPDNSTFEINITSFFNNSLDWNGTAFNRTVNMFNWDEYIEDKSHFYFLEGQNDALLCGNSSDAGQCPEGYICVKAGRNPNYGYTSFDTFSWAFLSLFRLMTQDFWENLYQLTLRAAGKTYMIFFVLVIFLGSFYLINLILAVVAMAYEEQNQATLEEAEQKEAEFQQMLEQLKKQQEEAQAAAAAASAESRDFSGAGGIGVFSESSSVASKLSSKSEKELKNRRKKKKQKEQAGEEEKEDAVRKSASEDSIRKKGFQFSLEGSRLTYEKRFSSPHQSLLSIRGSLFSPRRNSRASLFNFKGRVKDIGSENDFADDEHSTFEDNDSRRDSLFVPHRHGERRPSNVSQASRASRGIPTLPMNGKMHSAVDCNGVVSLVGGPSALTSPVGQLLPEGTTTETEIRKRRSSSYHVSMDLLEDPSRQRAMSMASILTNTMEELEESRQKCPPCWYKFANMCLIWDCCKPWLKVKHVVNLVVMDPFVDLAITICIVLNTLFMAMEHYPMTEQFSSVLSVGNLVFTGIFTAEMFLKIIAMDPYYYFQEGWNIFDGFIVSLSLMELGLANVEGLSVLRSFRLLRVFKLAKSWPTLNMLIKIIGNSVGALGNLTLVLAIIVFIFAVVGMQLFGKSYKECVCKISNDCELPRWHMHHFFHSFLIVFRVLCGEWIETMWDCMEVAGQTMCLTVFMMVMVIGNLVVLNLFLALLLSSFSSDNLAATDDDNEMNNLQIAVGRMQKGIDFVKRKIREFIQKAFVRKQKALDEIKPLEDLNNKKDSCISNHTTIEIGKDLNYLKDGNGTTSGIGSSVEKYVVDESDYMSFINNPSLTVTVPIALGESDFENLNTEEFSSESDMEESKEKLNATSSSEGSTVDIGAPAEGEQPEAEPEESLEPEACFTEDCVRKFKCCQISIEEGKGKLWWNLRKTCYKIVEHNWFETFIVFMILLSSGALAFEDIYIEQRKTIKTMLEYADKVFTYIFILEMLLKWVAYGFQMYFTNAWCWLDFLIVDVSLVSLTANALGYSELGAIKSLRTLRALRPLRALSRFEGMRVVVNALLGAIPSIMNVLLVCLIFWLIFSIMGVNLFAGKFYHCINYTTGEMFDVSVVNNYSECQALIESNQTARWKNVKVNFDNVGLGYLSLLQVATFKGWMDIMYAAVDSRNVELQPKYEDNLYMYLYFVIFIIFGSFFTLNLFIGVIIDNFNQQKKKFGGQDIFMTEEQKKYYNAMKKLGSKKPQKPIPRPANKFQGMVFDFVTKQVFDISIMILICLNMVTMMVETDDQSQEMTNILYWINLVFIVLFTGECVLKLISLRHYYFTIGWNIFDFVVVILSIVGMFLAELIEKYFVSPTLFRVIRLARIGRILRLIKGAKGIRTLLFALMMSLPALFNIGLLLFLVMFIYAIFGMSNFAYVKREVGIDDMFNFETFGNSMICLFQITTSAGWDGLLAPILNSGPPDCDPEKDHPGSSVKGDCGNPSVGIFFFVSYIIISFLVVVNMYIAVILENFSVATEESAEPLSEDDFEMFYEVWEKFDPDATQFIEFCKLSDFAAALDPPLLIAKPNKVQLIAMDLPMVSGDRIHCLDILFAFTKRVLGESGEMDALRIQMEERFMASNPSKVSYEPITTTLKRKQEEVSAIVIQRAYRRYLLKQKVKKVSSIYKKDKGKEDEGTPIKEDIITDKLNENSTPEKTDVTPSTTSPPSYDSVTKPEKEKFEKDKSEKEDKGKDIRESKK", "assay": "QPatch automated patch clamp, inhibition of sodium currents evoked by 5 Hz trains at three extracellular pH values", "format": "cell-based", "settings": "for class of pH-dependence pattern (cluster analysis): Ward's method on 18 variables of affinity, reversibility, onset; for τoffset / τonset: concentration (lidocaine 300 μM, memantine 30 μM); for inhibition: 100 μM", "outline": "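Trains of 5 steps from −90 to −10 mV every 20 s. Apparent affinity, onset/offset time constants (single-exponential fits) and reversibility (w−i)/(c−i) were derived from single-concentration data.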", "key": {"[1]": {"settings": "pH 6.0, single concentration (lidocaine 300 μM, memantine 30 μM), geometric mean of 5, read-out: apparent affinity"}, "[2]": {"settings": "pH 7.3, single concentration (lidocaine 300 μM, memantine 30 μM), geometric mean of 5, read-out: apparent affinity"}, "[3]": {"settings": "pH 8.6, single concentration (lidocaine 300 μM, memantine 30 μM), geometric mean of 5, read-out: apparent affinity"}, "[4]": {"settings": "pH=6.0, cc 100 mM, read-out: Apparent Affinity"}, "[5]": {"settings": "pH=7.3, cc 100 mM, read-out: Apparent Affinity"}, "[6]": {"settings": "pH=8.6, cc 100 mM, read-out: Apparent Affinity"}}, "note": "Like-named read-outs stand apart in the source and are kept apart here."}
{"smiles": "Cc1nc2sccn2c(=O)c1CCN1CCC(=C(c2ccc(F)cc2)c2ccc(F)cc2)CC1", "note": "[ritanserin]", "values": [{"measurement": "fold more potent at neutral pH than at pH = 6.0", "setting": "30 μM", "value": 3.5, "unit": "fold"}, {"measurement": "fold more potent at neutral pH than at pH = 8.6", "setting": "30 μM", "value": 5.9, "unit": "fold"}, {"measurement": "class of pH-dependence pattern (cluster analysis)", "value": "Class E"}, {"measurement": "effect of alkalic pH on onset/offset kinetics", "setting": "in words", "value": "decelerated onset"}, {"measurement": "alkalization-induced recovery", "setting": "neutral-to-alkalic solution exchange, in words", "value": "prominent alkalization-induced recovery"}, {"measurement": "reversibility at all three pH values", "setting": "pH 6.0, 7.3 and 8.6", "value": "below 0.6"}, {"measurement": "Ratio Reversibility", "setting": "pH 6.0/7.3, cc 30 mM", "value": 0.981}, {"measurement": "Ratio Tau Offset", "setting": "pH 6.0/7.3, cc 30 mM", "value": 0.863}, {"measurement": "Ratio Tau Onset", "setting": "pH 6.0/7.3, cc 30 mM", "value": 0.656}, {"measurement": "log Ratio App Aff", "setting": "pH 6.0/7.3, cc 30 mM", "value": 0.541}, {"measurement": "Ratio Reversibility", "setting": "pH 6.0/8.6, cc 30 mM", "value": 4.330}, {"measurement": "Ratio Tau Offset", "setting": "pH 6.0/8.6, cc 30 mM", "value": 0.456}, {"measurement": "Ratio Tau Onset", "setting": "pH 6.0/8.6, cc 30 mM", "value": 0.393}, {"measurement": "log Ratio App Aff", "setting": "pH 6.0/8.6, cc 30 mM", "value": -0.230}, {"measurement": "τoffset", "setting": "pH 6.0", "value": 17.60, "unit": "s"}, {"measurement": "τonset", "setting": "pH 6.0", "value": 11.80, "unit": "s"}, {"measurement": "Kd", "setting": "[1]", "value": 30.8, "unit": "µM"}, {"measurement": "Ratio Reversibility", "setting": "pH 7.3/8.6, cc 30 mM", "value": 4.412}, {"measurement": "Ratio Tau Offset", "setting": "pH 7.3/8.6, cc 30 mM", "value": 0.528}, {"measurement": "Ratio Tau Onset", "setting": "pH 7.3/8.6, cc 30 mM", "value": 0.600}, {"measurement": "log Ratio App Aff", "setting": "pH 7.3/8.6, cc 30 mM", "value": -0.772}, {"measurement": "τoffset", "setting": "pH 7.3", "value": 20.40, "unit": "s"}, {"measurement": "τonset", "setting": "pH 7.3", "value": 18.00, "unit": "s"}, {"measurement": "Kd", "setting": "[2]", "value": 8.87, "unit": "µM"}, {"measurement": "τoffset", "setting": "pH 8.6", "value": 38.60, "unit": "s"}, {"measurement": "τonset", "setting": "pH 8.6", "value": 30.00, "unit": "s"}, {"measurement": "Kd", "setting": "[3]", "value": 52.4, "unit": "µM"}, {"measurement": "Reversibility", "setting": "pH=6.0, cc 30 mM", "value": 0.36}, {"measurement": "Kd", "setting": "pH=6.0, cc 30 mM, read-out: Apparent Affinity", "value": 30.8, "unit": "µM"}, {"measurement": "Reversibility", "setting": "pH=7.3, cc 30 mM", "value": 0.37}, {"measurement": "Kd", "setting": "pH=7.3, cc 30 mM, read-out: Apparent Affinity", "value": 8.87, "unit": "µM"}, {"measurement": "Reversibility", "setting": "pH=8.6, cc 30 mM", "value": 0.08}, {"measurement": "Kd", "setting": "pH=8.6, cc 30 mM, read-out: Apparent Affinity", "value": 52.4, "unit": "µM"}]}
{"smiles": "C[Si](C)(Cc1ccc(F)cc1)CN1CCCCC1", "note": "[silperisone]", "values": [{"measurement": "inhibition", "setting": "pH 6.0", "value": 23, "unit": "%"}, {"measurement": "inhibition", "setting": "pH 7.3", "value": 42, "unit": "%"}, {"measurement": "inhibition", "setting": "pH 8.6", "value": 79, "unit": "%"}, {"measurement": "class of pH-dependence pattern (cluster analysis)", "value": "Class F"}, {"measurement": "Ratio Reversibility", "setting": "pH 6.0/7.3, cc 100 mM", "value": 0.877}, {"measurement": "Ratio Tau Offset", "setting": "pH 6.0/7.3, cc 100 mM", "value": 1.240}, {"measurement": "Ratio Tau Onset", "setting": "pH 6.0/7.3, cc 100 mM", "value": 0.900}, {"measurement": "log Ratio App Aff", "setting": "pH 6.0/7.3, cc 100 mM", "value": 0.387}, {"measurement": "Ratio Reversibility", "setting": "pH 6.0/8.6, cc 100 mM", "value": 1.714}, {"measurement": "Ratio Tau Offset", "setting": "pH 6.0/8.6, cc 100 mM", "value": 0.894}, {"measurement": "Ratio Tau Onset", "setting": "pH 6.0/8.6, cc 100 mM", "value": 1.154}, {"measurement": "log Ratio App Aff", "setting": "pH 6.0/8.6, cc 100 mM", "value": 1.096}, {"measurement": "τoffset", "setting": "pH 6.0", "value": 18.60, "unit": "s"}, {"measurement": "τonset", "setting": "pH 6.0", "value": 9.00, "unit": "s"}, {"measurement": "Kd", "setting": "[1]", "value": 334, "unit": "µM"}, {"measurement": "Ratio Reversibility", "setting": "pH 7.3/8.6, cc 100 mM", "value": 1.955}, {"measurement": "Ratio Tau Offset", "setting": "pH 7.3/8.6, cc 100 mM", "value": 0.721}, {"measurement": "Ratio Tau Onset", "setting": "pH 7.3/8.6, cc 100 mM", "value": 1.282}, {"measurement": "log Ratio App Aff", "setting": "pH 7.3/8.6, cc 100 mM", "value": 0.709}, {"measurement": "τoffset", "setting": "pH 7.3", "value": 15.00, "unit": "s"}, {"measurement": "τonset", "setting": "pH 7.3", "value": 10.00, "unit": "s"}, {"measurement": "Kd", "setting": "[2]", "value": 137, "unit": "µM"}, {"measurement": "τoffset", "setting": "pH 8.6", "value": 20.80, "unit": "s"}, {"measurement": "τonset", "setting": "pH 8.6", "value": 7.80, "unit": "s"}, {"measurement": "Kd", "setting": "[3]", "value": 26.8, "unit": "µM"}, {"measurement": "Reversibility", "setting": "pH=6.0, cc 100 mM", "value": 0.80}, {"measurement": "Kd", "setting": "[4]", "value": 334, "unit": "µM"}, {"measurement": "Reversibility", "setting": "pH=7.3, cc 100 mM", "value": 0.92}, {"measurement": "Kd", "setting": "[5]", "value": 137, "unit": "µM"}, {"measurement": "Reversibility", "setting": "pH=8.6, cc 100 mM", "value": 0.47}, {"measurement": "Kd", "setting": "[6]", "value": 26.8, "unit": "µM"}]}
{"smiles": "Cc1ccc(C(=O)C(C)CN2CCCCC2)cc1", "note": "(stereo not shown) [tolperisone]", "values": [{"measurement": "decrease of recovery at pH = 8.6 as compared to pH = 7.3", "value": 1.35, "unit": "fold"}, {"measurement": "class of pH-dependence pattern (cluster analysis)", "value": "Class F"}, {"measurement": "Ratio Reversibility", "setting": "pH 6.0/7.3, cc 100 mM", "value": 0.699}, {"measurement": "Ratio Tau Offset", "setting": "pH 6.0/7.3, cc 100 mM", "value": 1.256}, {"measurement": "Ratio Tau Onset", "setting": "pH 6.0/7.3, cc 100 mM", "value": 1.028}, {"measurement": "log Ratio App Aff", "setting": "pH 6.0/7.3, cc 100 mM", "value": 0.132}, {"measurement": "Ratio Reversibility", "setting": "pH 6.0/8.6, cc 100 mM", "value": 0.944}, {"measurement": "Ratio Tau Offset", "setting": "pH 6.0/8.6, cc 100 mM", "value": 1.286}, {"measurement": "Ratio Tau Onset", "setting": "pH 6.0/8.6, cc 100 mM", "value": 1.423}, {"measurement": "log Ratio App Aff", "setting": "pH 6.0/8.6, cc 100 mM", "value": 0.542}, {"measurement": "τoffset", "setting": "pH 6.0", "value": 16.20, "unit": "s"}, {"measurement": "τonset", "setting": "pH 6.0", "value": 7.40, "unit": "s"}, {"measurement": "Kd", "setting": "[1]", "value": 373, "unit": "µM"}, {"measurement": "Ratio Reversibility", "setting": "pH 7.3/8.6, cc 100 mM", "value": 1.349}, {"measurement": "Ratio Tau Offset", "setting": "pH 7.3/8.6, cc 100 mM", "value": 1.024}, {"measurement": "Ratio Tau Onset", "setting": "pH 7.3/8.6, cc 100 mM", "value": 1.385}, {"measurement": "log Ratio App Aff", "setting": "pH 7.3/8.6, cc 100 mM", "value": 0.410}, {"measurement": "τoffset", "setting": "pH 7.3", "value": 12.90, "unit": "s"}, {"measurement": "τonset", "setting": "pH 7.3", "value": 7.20, "unit": "s"}, {"measurement": "Kd", "setting": "[2]", "value": 275, "unit": "µM"}, {"measurement": "τoffset", "setting": "pH 8.6", "value": 12.60, "unit": "s"}, {"measurement": "τonset", "setting": "pH 8.6", "value": 5.20, "unit": "s"}, {"measurement": "Kd", "setting": "[3]", "value": 107, "unit": "µM"}, {"measurement": "KD app, effect of acidic medium", "setting": "pH = 6.0 vs neutral, increased KD app = decreased apparent affinity", "value": "MEM,MEX,TOL↑"}, {"measurement": "Reversibility", "setting": "pH=6.0, cc 100 mM", "value": 0.65}, {"measurement": "Kd", "setting": "[4]", "value": 373, "unit": "µM"}, {"measurement": "Reversibility", "setting": "pH=7.3, cc 100 mM", "value": 0.93}, {"measurement": "Kd", "setting": "[5]", "value": 275, "unit": "µM"}, {"measurement": "Reversibility", "setting": "pH=8.6, cc 100 mM", "value": 0.69}, {"measurement": "Kd", "setting": "[6]", "value": 107, "unit": "µM"}]}
